Earlier results as cited in patent US5594100A, “Epitope for prevention of type I diabetes” (Regents of the University of Colorado, priority 1995, dated 1997).

Tested on: islet-specific T cell lines and clones from islet-infiltrating lymphocytes
Conditions: panel of nominally islet-specific lines and clones from female NOD mice

Substance: porcine insulin: Porcine insulin (Sigma) used for testing specificity of insulin-specific T cell lines and clones
- T cell lines and clones responding to porcine insulin: 22 of 40
- percent of T cell lines and clones responding to porcine insulin: 55%
